Like-named read-outs stand apart in the source and are kept apart here. One block for each compound: values may come before it. Peptide text beside a SMILES is read from it. * marks the point of attachment. Biotin = O=C1N[C@H]2[C@H](CS[C@H]2CCCCC(=O)*)N1
What was measured:
Assay in all cases: Apparent affinity (Kd) by titration of PL peptide in the G assay
Format in all cases: binding
[1] = target: T1, PDZ-domain polypeptide (GST/PDZ fusion protein) (Homo sapiens, UniProt O75970)
T1 construct: made in house; host or cells: E. coli (DH5alpha, BL21 or JM109)
Method in brief: (§1)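 A fixed concentration of GST/PDZ fusion protein, 5 ug/ml by default, was mixed in solution with increasing labeled PL peptide (e.g. 0.1 uM-1 mM). Reaction times ranged from 10 minutes to 2 days at 4-37° C. Complexes were separated from free peptide and detected via the label as in the G assay, apparent affinity coming from the saturating concentration.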

[2] = target: T2, PDZ-domain polypeptide (GST/PDZ fusion protein) (Homo sapiens, UniProt Q6P0Q8)
T2 construct: made in house; host or cells: E. coli (DH5alpha, BL21 or JM109)
T2 sequence (Q6P0Q8 whole entry, the tested form may be a part): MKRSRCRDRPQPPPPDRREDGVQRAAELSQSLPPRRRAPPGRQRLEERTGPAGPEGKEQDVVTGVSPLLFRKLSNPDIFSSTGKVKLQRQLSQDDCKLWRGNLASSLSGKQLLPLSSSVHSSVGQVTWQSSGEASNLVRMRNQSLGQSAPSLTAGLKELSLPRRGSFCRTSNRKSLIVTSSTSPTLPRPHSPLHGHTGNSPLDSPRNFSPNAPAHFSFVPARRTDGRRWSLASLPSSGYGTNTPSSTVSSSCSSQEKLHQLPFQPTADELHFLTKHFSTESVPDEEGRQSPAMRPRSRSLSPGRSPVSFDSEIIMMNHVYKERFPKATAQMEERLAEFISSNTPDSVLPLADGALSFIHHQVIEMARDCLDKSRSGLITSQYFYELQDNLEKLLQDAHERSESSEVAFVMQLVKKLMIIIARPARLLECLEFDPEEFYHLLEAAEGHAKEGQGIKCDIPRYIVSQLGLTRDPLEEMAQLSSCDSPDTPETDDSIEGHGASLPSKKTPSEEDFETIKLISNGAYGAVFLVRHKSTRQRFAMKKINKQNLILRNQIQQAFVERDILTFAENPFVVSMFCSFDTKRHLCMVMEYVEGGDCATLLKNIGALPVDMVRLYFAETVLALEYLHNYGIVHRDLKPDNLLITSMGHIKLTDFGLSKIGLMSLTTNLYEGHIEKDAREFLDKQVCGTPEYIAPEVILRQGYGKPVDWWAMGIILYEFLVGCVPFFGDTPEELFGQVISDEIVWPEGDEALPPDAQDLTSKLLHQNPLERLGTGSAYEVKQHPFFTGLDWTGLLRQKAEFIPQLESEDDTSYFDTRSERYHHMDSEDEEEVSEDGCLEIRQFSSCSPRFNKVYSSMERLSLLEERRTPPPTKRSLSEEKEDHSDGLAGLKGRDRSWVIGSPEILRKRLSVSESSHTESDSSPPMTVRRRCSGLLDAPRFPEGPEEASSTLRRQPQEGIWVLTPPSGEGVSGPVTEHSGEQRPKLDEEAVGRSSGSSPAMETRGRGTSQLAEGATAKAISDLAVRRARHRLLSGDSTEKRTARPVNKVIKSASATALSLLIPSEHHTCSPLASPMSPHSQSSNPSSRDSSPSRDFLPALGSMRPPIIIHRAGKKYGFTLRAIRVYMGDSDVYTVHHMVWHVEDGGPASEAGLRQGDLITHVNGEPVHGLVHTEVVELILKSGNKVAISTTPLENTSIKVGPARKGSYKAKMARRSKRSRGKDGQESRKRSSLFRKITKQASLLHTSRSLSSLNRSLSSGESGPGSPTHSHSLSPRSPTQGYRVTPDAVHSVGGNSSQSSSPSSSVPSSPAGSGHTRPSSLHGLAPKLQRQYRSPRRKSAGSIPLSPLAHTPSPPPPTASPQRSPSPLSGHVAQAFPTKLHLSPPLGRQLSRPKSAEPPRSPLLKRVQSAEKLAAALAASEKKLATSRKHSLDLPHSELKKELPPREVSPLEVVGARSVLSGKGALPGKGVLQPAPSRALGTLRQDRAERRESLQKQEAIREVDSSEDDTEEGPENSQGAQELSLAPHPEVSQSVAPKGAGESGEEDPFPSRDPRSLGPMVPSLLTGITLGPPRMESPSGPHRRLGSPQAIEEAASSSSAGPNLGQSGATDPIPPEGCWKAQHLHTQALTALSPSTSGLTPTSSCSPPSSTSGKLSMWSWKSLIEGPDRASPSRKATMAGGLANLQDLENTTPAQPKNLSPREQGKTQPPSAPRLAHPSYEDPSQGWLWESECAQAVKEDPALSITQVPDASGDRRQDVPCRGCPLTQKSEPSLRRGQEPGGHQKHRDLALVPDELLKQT
Method in brief: as §1

[3] = target: T3, PDZ-domain polypeptide (GST/PDZ fusion protein) (Homo sapiens, UniProt Q86UL8); conditions: PDZ atrophin-1 interacting Protein
T3 construct: made in house; host or cells: E. coli (DH5alpha, BL21 or JM109)
T3 sequence (Q86UL8 whole entry, the tested form may be a part): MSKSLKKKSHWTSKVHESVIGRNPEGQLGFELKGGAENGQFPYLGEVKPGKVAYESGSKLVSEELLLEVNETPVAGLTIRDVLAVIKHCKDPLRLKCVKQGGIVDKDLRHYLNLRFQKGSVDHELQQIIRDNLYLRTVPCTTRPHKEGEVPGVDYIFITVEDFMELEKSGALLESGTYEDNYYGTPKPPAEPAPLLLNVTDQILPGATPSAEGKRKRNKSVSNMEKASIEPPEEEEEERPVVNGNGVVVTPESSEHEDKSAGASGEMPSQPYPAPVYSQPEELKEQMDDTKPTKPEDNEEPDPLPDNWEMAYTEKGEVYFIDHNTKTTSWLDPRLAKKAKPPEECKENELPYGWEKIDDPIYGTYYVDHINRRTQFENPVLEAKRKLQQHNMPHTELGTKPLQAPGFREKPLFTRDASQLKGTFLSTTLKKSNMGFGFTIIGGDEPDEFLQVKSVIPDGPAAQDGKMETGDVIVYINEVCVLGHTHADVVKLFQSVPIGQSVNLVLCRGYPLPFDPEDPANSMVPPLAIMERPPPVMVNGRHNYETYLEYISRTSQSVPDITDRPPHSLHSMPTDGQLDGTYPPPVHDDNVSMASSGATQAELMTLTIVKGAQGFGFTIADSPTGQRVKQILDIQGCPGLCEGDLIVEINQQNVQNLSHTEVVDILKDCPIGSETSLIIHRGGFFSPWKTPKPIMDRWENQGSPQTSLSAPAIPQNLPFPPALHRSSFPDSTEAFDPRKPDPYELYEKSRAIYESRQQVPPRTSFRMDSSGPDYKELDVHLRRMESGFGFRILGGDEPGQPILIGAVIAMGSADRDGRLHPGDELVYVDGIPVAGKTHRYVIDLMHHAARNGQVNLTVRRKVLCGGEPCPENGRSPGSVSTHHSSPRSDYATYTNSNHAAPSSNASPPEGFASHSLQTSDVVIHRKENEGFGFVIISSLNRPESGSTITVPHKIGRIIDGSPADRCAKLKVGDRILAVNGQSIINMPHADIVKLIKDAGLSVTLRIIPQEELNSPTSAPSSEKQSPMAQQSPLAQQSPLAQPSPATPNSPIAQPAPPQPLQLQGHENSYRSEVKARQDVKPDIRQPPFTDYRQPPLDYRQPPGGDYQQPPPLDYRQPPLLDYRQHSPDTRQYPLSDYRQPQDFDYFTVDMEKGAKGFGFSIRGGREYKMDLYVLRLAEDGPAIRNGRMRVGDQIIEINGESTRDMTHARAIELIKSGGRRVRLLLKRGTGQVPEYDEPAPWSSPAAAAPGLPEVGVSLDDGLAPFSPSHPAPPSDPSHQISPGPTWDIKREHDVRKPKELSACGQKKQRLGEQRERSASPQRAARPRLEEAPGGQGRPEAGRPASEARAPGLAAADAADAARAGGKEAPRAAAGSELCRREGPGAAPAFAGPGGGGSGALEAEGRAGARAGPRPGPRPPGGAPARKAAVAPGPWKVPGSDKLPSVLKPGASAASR
Method in brief: as §1

[4] = target: T4, PDZ-domain polypeptide (GST/PDZ fusion protein) (Homo sapiens, UniProt Q96JH8); conditions: PDZ FLJ 10324, PDZ Domain 1
T4 construct: made in house; host or cells: E. coli (DH5alpha, BL21 or JM109)
T4 sequence (Q96JH8 1-1075): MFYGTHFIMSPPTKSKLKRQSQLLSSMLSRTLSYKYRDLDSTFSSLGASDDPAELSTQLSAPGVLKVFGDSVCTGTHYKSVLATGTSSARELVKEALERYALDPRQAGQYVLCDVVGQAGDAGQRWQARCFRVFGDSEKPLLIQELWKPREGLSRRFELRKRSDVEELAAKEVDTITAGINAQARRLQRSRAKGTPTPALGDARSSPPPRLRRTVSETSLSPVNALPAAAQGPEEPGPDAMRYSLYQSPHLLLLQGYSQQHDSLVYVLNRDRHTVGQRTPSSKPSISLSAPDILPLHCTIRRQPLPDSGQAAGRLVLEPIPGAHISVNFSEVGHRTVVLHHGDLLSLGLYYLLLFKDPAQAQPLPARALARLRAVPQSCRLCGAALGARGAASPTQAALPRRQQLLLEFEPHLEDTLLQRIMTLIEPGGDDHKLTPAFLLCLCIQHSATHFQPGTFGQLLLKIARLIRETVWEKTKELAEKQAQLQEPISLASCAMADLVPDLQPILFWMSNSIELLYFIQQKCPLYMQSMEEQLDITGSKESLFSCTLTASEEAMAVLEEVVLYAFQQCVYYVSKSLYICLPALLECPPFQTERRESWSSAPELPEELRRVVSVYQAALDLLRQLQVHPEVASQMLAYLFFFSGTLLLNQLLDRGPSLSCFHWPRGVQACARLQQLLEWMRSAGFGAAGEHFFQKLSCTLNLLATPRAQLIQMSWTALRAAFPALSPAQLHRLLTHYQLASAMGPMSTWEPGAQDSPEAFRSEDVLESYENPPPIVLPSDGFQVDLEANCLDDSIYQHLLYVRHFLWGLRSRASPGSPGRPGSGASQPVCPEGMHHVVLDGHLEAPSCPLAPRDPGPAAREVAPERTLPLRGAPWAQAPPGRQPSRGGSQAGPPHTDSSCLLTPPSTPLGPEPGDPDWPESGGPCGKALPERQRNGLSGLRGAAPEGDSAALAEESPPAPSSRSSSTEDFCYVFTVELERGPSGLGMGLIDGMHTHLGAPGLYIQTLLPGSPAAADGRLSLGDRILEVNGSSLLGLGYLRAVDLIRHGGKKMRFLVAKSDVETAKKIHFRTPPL
Method in brief: as §1

[5] = PDZ KIAA0807(S), PDZ Domain 1, read-out: Peptide Optimal Conc (Kd by titration of the PL peptide)
[6] = PDZ MUPP-1, PDZ Domain 7, titration of the PL peptide, read-out: Peptide Optimal Conc (Kd, dissociation constant)
[7] = titration of the PL peptide, read-out: Peptide Optimal Conc (Kd, dissociation constant)

SMILES: CC[C@H](C)[C@H](NC(=O)[C@H](CC(=O)O)NC(=O)[C@H](CCC(=O)O)NC(=O)[C@H](CCCNC(=N)N)NC(=O)[C@@H](NC(=O)CCCC[C@@H]1SC[C@@H]2NC(=O)N[C@@H]21)[C@@H](C)O)C(=O)N[C@@H](Cc1ccc(O)cc1)C(=O)N[C@H](C(=O)N[C@@H](CC(N)=O)C(=O)N[C@@H](Cc1ccc(O)cc1)C(=O)N1CCC[C@H]1C(=O)N[C@H](C(=O)N[C@@H](Cc1ccccc1)C(=O)N[C@@H](CO)C(=O)N[C@@H](CCCNC(=N)N)C(=O)N[C@@H](CCCNC(=N)N)C(=O)N1CCC[C@H]1C(=O)N[C@@H](CCCCN)C(=O)N[C@H](C(=O)N[C@@H](CCCNC(=N)N)C(=O)N[C@H](C(=O)O)C(C)C)[C@@H](C)O)[C@@H](C)O)C(C)C [DNAM-1] (Biotin-TREDIYVNYPTFSRRPKTRV-OH; C-terminus assumed)
Kd ([1]; Peptide Optimal Conc (Kd by titration of the PL peptide), PDZ MUPP-1, PDZ Domain 10): 2.5 µM
Kd ([2]; Peptide Optimal Conc (Kd by titration of the PL peptide), PDZ KIAA807): 2 µM
Kd ([2]; Peptide Optimal Conc (Kd by titration of the PL peptide), PDZ KIAA0807(S), PDZ Domain 1): 2 µM
Kd ([3]; Peptide Optimal Conc (Kd by titration of the PL peptide), PDZ Domain 1): 3 µM

SMILES: CC(C)C[C@H](NC(=O)[C@H](Cc1c[nH]c2ccccc12)NC(=O)[C@H](Cc1c[nH]cn1)NC(=O)[C@H](CCCNC(=N)N)NC(=O)[C@H](CC(C)C)NC(=O)[C@@H](NC(=O)[C@H](Cc1ccccc1)NC(=O)[C@H](CCC(N)=O)NC(=O)[C@H](CCCNC(=N)N)NC(=O)[C@@H](NC(=O)[C@H](CCC(=O)O)NC(=O)CNC(=O)[C@H](CCCNC(=N)N)NC(=O)[C@H](CC(=O)O)NC(=O)[C@@H](NC(=O)[C@H](CC(C)C)NC(=O)[C@H](CCC(=O)O)NC(=O)[C@H](CCCNC(=N)N)NC(=O)CCCC[C@@H]1SC[C@@H]2NC(=O)N[C@@H]21)C(C)C)C(C)C)[C@@H](C)O)C(=O)N[C@@H](CCCCN)C(=O)N[C@H](C(=O)O)C(C)C [Dopamine transporter (Na+-dependent)] (Biotin-RELVDRGEVRQFTLRHWLKV-OH; C-terminus assumed)
Kd [2, 5]: 0.4 µM
Kd ([2]; PDZ KIAA807, read-out: Peptide Optimal Conc (Kd by titration of the PL peptide)): 0.4 µM
Kd ([4]; read-out: Peptide Optimal Conc (Kd by titration of the PL peptide)): 0.3 µM

SMILES: CSCC[C@H](NC(=O)[C@H](C)NC(=O)[C@H](CCCNC(=N)N)NC(=O)CNC(=O)[C@@H](NC(=O)[C@H](Cc1c[nH]c2ccccc12)NC(=O)[C@H](CCCNC(=N)N)NC(=O)CNC(=O)CCCC[C@@H]1SC[C@@H]2NC(=O)N[C@@H]21)[C@@H](C)O)C(=O)N[C@@H](CO)C(=O)N[C@@H](C)C(=O)N[C@@H](Cc1c[nH]c2ccccc12)C(=O)N[C@@H](CCCCN)C(=O)N1CCC[C@H]1C(=O)N[C@H](C(=O)N[C@@H](CCCNC(=N)N)C(=O)N[C@@H](CCCNC(=N)N)C(=O)N[C@@H](CCC(=O)O)C(=O)N[C@H](C(=O)N[C@@H](CCC(=O)O)C(=O)N[C@H](C(=O)O)C(C)C)[C@@H](C)O)[C@@H](C)O [HPV E6 #35 (modified)] (Biotin-GRWTGRAMSAWKPTRRETEV-OH; C-terminus assumed)
Kd ([2]; PDZ KIAA0807(S), PDZ Domain 1, Protein Optimal Conc 0.5, read-out: Peptide Optimal Conc (Kd by titration of the PL peptide)): 0.1 µM
Kd ([3]; PDZ Domain 2, read-out: Peptide Optimal Conc (Kd by titration of the PL peptide)): 0.8 µM

SMILES: CC[C@H](C)[C@H](NC(=O)[C@H](CCC(N)=O)NC(=O)[C@@H](NC(=O)[C@H](Cc1c[nH]cn1)NC(=O)[C@H](CCC(N)=O)NC(=O)[C@H](CC(=O)O)NC(=O)[C@H](CCC(=O)O)NC(=O)[C@H](CC(=O)O)NC(=O)[C@H](Cc1ccccc1)NC(=O)[C@@H]1CCCN1C(=O)[C@H](CCC(=O)O)NC(=O)[C@H](CC(N)=O)NC(=O)[C@H](CCC(=O)O)NC(=O)[C@@H]1CCCN1C(=O)[C@H](CC(=O)O)NC(=O)[C@H](CO)NC(=O)[C@H](CC(=O)O)NC(=O)CCCC[C@@H]1SC[C@@H]2NC(=O)N[C@@H]21)[C@@H](C)O)C(=O)N[C@H](C(=O)N[C@@H](CCCCN)C(=O)N[C@H](C(=O)O)C(C)C)[C@@H](C)O [PTEN]
Kd [2, 5]: 0.3 µM

SMILES: CC[C@H](C)[C@H](NC(=O)[C@H](C)NC(=O)[C@H](CC(C)C)NC(=O)[C@H](Cc1c[nH]c2ccccc12)NC(=O)[C@H](Cc1c[nH]cn1)NC(=O)[C@H](CCC(N)=O)NC(=O)[C@H](CC(C)C)NC(=O)[C@H](CCC(N)=O)NC(=O)[C@H](Cc1ccccc1)NC(=O)[C@H](CCC(N)=O)NC(=O)[C@H](CCCNC(=N)N)NC(=O)[C@@H](NC(=O)[C@H](CC(=O)O)NC(=O)[C@H](CCCNC(=N)N)NC(=O)[C@H](CCC(N)=O)NC(=O)[C@H](C)NC(=O)[C@@H](NC(=O)[C@H](CC(C)C)NC(=O)[C@H](Cc1c[nH]cn1)NC(=O)[C@H](Cc1c[nH]cn1)NC(=O)CCCC[C@@H]1SC[C@@H]2NC(=O)N[C@@H]21)C(C)C)[C@@H](C)CC)C(=O)O [noradrenaline transporter] (Biotin-HHLVAQRDIRQFQLQHWLAI-OH; C-terminus assumed)
Kd ([1]; Peptide Optimal Conc (Kd by titration of the PL peptide), PDZ MUPP-1, PDZ Domain 3): 0.4 µM
Kd ([1]; Peptide Optimal Conc (Kd by titration of the PL peptide), PDZ MUPP-1, PDZ Domain 7): 0.8 µM
Kd ([1]; Peptide Optimal Conc (Kd by titration of the PL peptide), PDZ MUPP-1, PDZ Domain 9): 0.7 µM
Kd ([4]; Peptide Optimal Conc (Kd by titration of the PL peptide)): 0.6 µM

Continued, values first:

Kd [1, 6]: 1.5 µM
Kd [4, 7]: 1 µM
SMILES: CC[C@H](C)[C@H](NC(=O)[C@H](Cc1ccc(O)cc1)NC(=O)[C@@H](NC(=O)[C@@H]1CCCN1C(=O)[C@H](CCC(N)=O)NC(=O)[C@H](CCC(=O)O)NC(=O)[C@H](CCC(N)=O)NC(=O)[C@H](C)NC(=O)[C@@H](NC(=O)[C@H](CC(C)C)NC(=O)[C@H](CC(C)C)NC(=O)[C@H](CCCNC(=N)N)NC(=O)[C@H](Cc1ccc(O)cc1)NC(=O)[C@H](CCSC)NC(=O)[C@H](C)NC(=O)[C@H](C)NC(=O)[C@@H]1CCCN1C(=O)[C@H](CCSC)NC(=O)[C@@H](NC(=O)[C@H](CCCCN)NC(=O)CCCC[C@@H]1SC[C@@H]2NC(=O)N[C@@H]21)[C@@H](C)O)[C@@H](C)O)C(C)C)C(=O)O [MINT-1] (Biotin-KTMPAAMYRLLTAQEQPVYI-OH; C-terminus assumed)

Kd ([3]; PDZ Domain 1, read-out: Peptide Optimal Conc (Kd by titration of the PL peptide)): 0.25 µM
SMILES: CC(C)C[C@H](NC(=O)CNC(=O)[C@@H](NC(=O)[C@H](CO)NC(=O)[C@H](CC(N)=O)NC(=O)[C@H](Cc1ccccc1)NC(=O)CNC(=O)[C@H](C)NC(=O)[C@H](C)NC(=O)[C@H](Cc1ccccc1)NC(=O)[C@@H](NC(=O)CCCC[C@@H]1SC[C@@H]2NC(=O)N[C@@H]21)[C@@H](C)O)[C@@H](C)O)C(=O)N1CCC[C@H]1C(=O)N[C@@H](Cc1c[nH]cn1)C(=O)N[C@@H](CO)C(=O)N[C@H](C(=O)N[C@H](C(=O)N[C@@H](CCCNC(=N)N)C(=O)N[C@H](C(=O)O)C(C)C)[C@@H](C)O)[C@@H](C)O [Neuroligin] (Biotin-TFAAGFNSTGLPHSTTRV-OH; C-terminus assumed)

Kd [1, 6]: 4 µM
Kd [4, 7]: 1 µM
SMILES: CC[C@H](C)[C@H](NC(=O)[C@H](Cc1ccc(O)cc1)NC(=O)[C@H](CC(C)C)NC(=O)[C@H](CCC(N)=O)NC(=O)[C@H](Cc1c[nH]cn1)NC(=O)[C@H](CO)NC(=O)[C@H](C)NC(=O)[C@H](CC(C)C)NC(=O)[C@@H](NC(=O)[C@H](CC(=O)O)NC(=O)[C@H](CCSC)NC(=O)[C@H](Cc1ccccc1)NC(=O)[C@@H]1CCCN1C(=O)[C@H](CCCNC(=N)N)NC(=O)[C@@H](NC(=O)[C@H](CC(C)C)NC(=O)[C@H](CC(N)=O)NC(=O)[C@H](CC(=O)O)NC(=O)[C@@H](NC(=O)[C@H](CO)NC(=O)CCCC[C@@H]1SC[C@@H]2NC(=O)N[C@@H]21)[C@@H](C)O)C(C)C)[C@@H](C)O)C(=O)O [presenilin-2] (Biotin-STDNLVRPFMDTLASHQLYI-OH; C-terminus assumed)

Source: US20050282743A1, “Molecular interactions in cells” (Arbor Vita Corporation, priority 2001, published 2005)
